These results are taken from patent US10722580B2, “Compositions and methods for treatment and prevention of uropathogenic E. coli infection” (UNIVERSITY OF WASHINGTON, priority 2015, dated 2020).

Assay [1] concerns FimH^wt-expressing E. coli. Kind of assay: Inhibition of bacterial adhesion to surface-immobilized yeast mannan. Format: cell-based. The procedure:
(§1) Microtiter 96-well plates were coated with 20 μg/ml of yeast mannan or RNaseB (Sigma-Aldrich) in 0.02 M NaHCO3 buffer at pH 9.6. The wells were quenched with 0.2% bovine serum albumin (BSA, Sigma-Aldrich) in PBS for 20 min. Bacteria expressing FimH adhesin (OD=1 or OD=2) were first preincubated with different concentrations of mAbs for 1 h at 37° C. and then allowed to adhere to ligand-coated surface for another 1 h. After an extensive washing with PBS, plates were dried and bound bacteria were stained with 0.1% crystal violet (Becton Dickinson) for 20 min at room temperature (RT). The wells were washed with water and 50% ethanol was added to the wells. The absorbance was measured at 600 nm.

In another assay the test system is FimH^wt:(186-201)FocH. Put plainly: Cross-interference of inhibitory mAbs binding to FimH. Set-up: species or system E. coli. The following applies: FimH pre-incubated with antibody, biotinylated mAb binding (FIG. 16). The procedure: FIG. 16. Inhibitory mAbs interfere with each other's binding to FimH. […] The data shown are mean±SD of triplicates from one representative experiment of multiple experiments that were performed with similar settings.
Chain of FimH^wt:(186-201)FocH (P08191 22-179 limits assumed): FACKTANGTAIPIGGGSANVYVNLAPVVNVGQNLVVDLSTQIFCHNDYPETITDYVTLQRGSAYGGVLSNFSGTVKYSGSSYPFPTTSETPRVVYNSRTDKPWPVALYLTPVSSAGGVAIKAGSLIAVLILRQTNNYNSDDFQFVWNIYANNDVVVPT

For assay [2], the system named is E. coli UTI89. Put plainly: Biofilm formation on mannan-coated surface. The following applies: 1% mannose or 50 μg/ml mAb added prior to growth (FIG. 7A). Format: cell-based. The procedure:
(§2) Microtiter 96-well plates were coated with 20 μg/mL of yeast mannan or RNaseB (Sigma-Aldrich) in 0.02 M NaHCO3 buffer at pH 9.6. Bacterial strains grown overnight in 3 ml LB media were spun and washed 1× with minimal essential media (MEM, Difco). […] After washing with PBS, formed biofilms were stained with 0.1% (v/v) crystal violet (Becton Dickinson) as described above for bacterial adhesion assay. […] The wells were washed 3 times with PBS and stain for biofilm detection as described above.

Assay [3] deals with E. coli UTI89. Put plainly: Detachment of 16 h-old biofilm on mannan-coated surface. It counts as cell-based. The following applies: for effect on detachment of pre-formed biofilm: 1% mannose or 50 μg/ml mAb (FIG. 7B). The procedure: as §2
Assay [4] deals with E. coli UTI89. Kind of assay: Mouse bladder infection, transurethral inoculation of mAb-pretreated bacteria. It counts as in vivo. The following applies: C57BL/6 mice, 24 h post infection, bacteria pretreated with 500 μg/ml mAb 1 h. Here is the method:
Infection of 10- to 11-week-old C57BL/6 female mice was performed as described elsewhere (Kisiela, et al. 2013). Briefly, bacteria were grown in LB medium without shaking for 48 h, harvested, washed twice in PBS and resuspended in PBS at a final concentration of 10^8 CFU per ml. Bacteria were pretreated with 500 μg/ml mAbs for 1 h at 37° C. prior to inoculation. Mice were anesthetized with ketamine/xylazine and twenty-five microliters of mAb-pretreated bacteria in PBS were inoculated transurethrally into mouse bladders via catheter. After 24 h, mice were sacrificed and bladders were aseptically removed and homogenized in 1 mL PBS. Serial dilutions were plated and total bacterial load per bladder was calculated. Statistical significance was determined using two-tailed Mann-Whitney test (GraphPad Prism 6.0 software, La Jolla, Ca).

Assay [5] relates to E. coli CFT073. Put plainly: Passive and active immunization, non-diabetic mice, bacterial load in urine. It counts as in vivo. The procedure: (§3) The intraperitoneal injection was completed 1 day prior and 1 day after challenge with CFT073 E. coli (A07 Study for Vaccine candidate, Contract #HHSN2722010000401, Task Order #HHSN27200005, Galveston). […] Mixtures of antibodies for passive transfer were prepared as 150 μg per mouse doses in 50 μl volumes of sterile HBS. The effect of the antibodies was evaluated in two mice models that included non-diabetic and diabetic C57BI/6 mice, respectively. Mice injected with incomplete Freund's adjuvant only (IFA) were used as the control (mock) group in each model. Bacterial load in mice urine was analyzed daily over 14-days' time period starting 24 h after bacterial challenge.
Diabetic state in C57BI/6 mice was induced by the 4 days-treatment with streptozotocin (STZ) by intraperitoneal injection. Groups of 100 C57BI/6 mice were randomly divided into 5 groups of ten for diabetic and for non-diabetic states respectively. […] Mice were challenged with CFT073 UPEC strain (1×10^6 cfu/50 μl per mouse) via intraurethral catheterization under isoflurane anesthesia. Bacterial load in mice urine was analyzed daily over 14-days' time starting 24 h after bacterial challenge. Genomic bacterial load was quantified in each urine sample (10 μl) by qPCR. Statistical analysis of the data was performed using the Generalized Estimating Equation model (GEE) (xtgee command in STATA software, StataCorp. 2015. Stata Statistical Software: Release 14. College Station, Tex.: StataCorp LP). Overall, 1400 observations were made for 100 mice over 14 days. Out of 1,400 total 237 observations were missing (no urine provided) and were excluded from subsequent analysis. The mice ID were set as a panel variable, treatment type and days as predictor variables with interaction allowed between them; and E. coli counts as an outcome variable. […] For log10 transformation, zero counts (E. coli not detected) were replaced with value 1. […] After exclusion of outliers, 617 (out of initial 673, 91.6%) observations were analyzed using same model.

Assay [6] relates to E. coli CFT073. Kind of assay: Passive and active immunization, diabetic mice, bacterial load in urine. The following applies: diabetic (STZ) mice; mAb 150 μg i.p. or LD antigen 15 μg s.c. Format: in vivo. The procedure: as §3
Diabetic state in C57BI/6 mice was induced by the 4 days-treatment with streptozotocin (STZ) by intraperitoneal injection. Groups of 100 C57BI/6 mice were randomly divided into 5 groups of ten for diabetic and for non-diabetic states respectively. […] Bacterial load in mice urine was analyzed daily over 14-days' time starting 24 h after bacterial challenge. Genomic bacterial load was quantified in each urine sample (10 μl) by qPCR. […] For log10 transformation, zero counts (E. coli not detected) were replaced with value 1. […] After exclusion of outliers, 617 (out of initial 673, 91.6%) observations were analyzed using same model.

The test system of another assay is Klebsiella fimbrial FimH. Put plainly: Binding of anti-E. coli FimH antibodies to Klebsiella fimbrial FimH. Set-up: species or system Klebsiella pneumoniae. The following applies: FimH^wt and FimH^S62A, 50 and 5 μg/ml mAb (FIG. 9). The procedure: FIG. 9. Recognition of Klebsiella FimH by anti-E. coli FimH antibodies. […] Type 1 fimbriae carrying different FimH variants (FimH^wt and FimH^S62A mutant) were incubated with different concentrations of mAbs (50 and 5 μg/ml). Data shown are mean±SD of duplicates from one representative experiment.

The test system of assay [7] is Klebsiella pneumoniae. Kind of assay: Inhibition of Klebsiella adhesion to surface-immobilized RNaseB. Format: cell-based. The following applies: 50 μg/ml mAb (FIG. 10). Here is the method: FIG. 10. […] Data are mean±SD (n=2 independent experiments).
as §1

The test system of assay [8] is Klebsiella pneumoniae. Put plainly: Klebsiella biofilm formation on RNaseB-coated surfaces. The following applies: two Klebsiella FimH variants, 1% mannose or 50 μg/ml mAb (FIG. 11A). It counts as cell-based. Here is the method:
(§4) FIG. 11. […] Data (mean±SD, n=3 independent experiments). […] Data (mean±SD, n=3 independent experiments). Biofilm was quantified using the crystal violet staining method. *, P≤0.05, **, P≤0.0005 (one sample t-test).
as §2

Assay [9] has as its system Klebsiella pneumoniae. Kind of assay: Detachment of 14 h-old Klebsiella biofilm. It counts as cell-based. The following applies: 14-h-old biofilm, 1% mannose or 50 μg/ml mAb (FIG. 11B). The procedure:
as §4, §2

Consider “mAb926: mouse monoclonal anti-FimH antibody, VL SEQ ID NO: 3, VH SEQ ID NO: 4; non-competitive parasteric inhibitor”, for which, in [1], the “difference in inhibitory potency (IC50) mAb926 vs mAb475” value is on record as 32 fold. The “inhibition of bacterial adhesion at its KD concentration” value in [1] (antibody at its KD concentration) was greater than 50%. In addition, in the assay with FimH^wt:(186-201)FocH, the “interference with the other inhibitory mAb's binding to FimH” value is on record as “strongly cross-interfere with each other's binding to FimH”. Moreover, the “effect on biofilm formation” value with E. coli UTI89 [2] was “prevented formation”. The biofilm reduction in the assay on E. coli UTI89 [3] (50 μg/ml mAb (FIG. 7B)) stood at 93%. Besides, in the assay with E. coli UTI89 [3], the “effect on detachment of pre-formed biofilm” value is on record as “effective dissolution of the biofilm”. In the assay on E. coli UTI89 [4], the “reduction in bacteria recovered from bladder” value is recorded as 83%. In addition, the “estimated average log10 of bacterial counts in urine” value with E. coli CFT073 [5] (non-diabetic C57BI/6 mice, day 1 after challenge, 150 μg mAb i.p. 1 day prior and 1 day after challenge) is on record as 1.31±0.5 log10. The “estimated log10 bacterial counts in urine” value with E. coli CFT073 [5] (non-diabetic C57BI/6 mice, day 3 after challenge, 150 μg mAb i.p.) is reported as 0.99±0.4 log10. Moreover, the “effect on bacterial counts in urine vs mock group” value is reported as “significant decrease of bacterial counts in urine” in the assay with E. coli CFT073 [5] (non-diabetic mice, mAb 150 μg i.p. or LD antigen 15 μg s.c.) and “reduced bacterial load” in the assay on E. coli CFT073 [6]. In addition, the “binding to Klebsiella FimH compared with E. coli FimH” value in the assay with Klebsiella fimbrial FimH is “same level of binding to both FimH adhesins”. In addition, the “effect on Klebsiella adhesion to RNaseB” value in the assay on Klebsiella pneumoniae [7] is on record as “significantly reduced bacterial adhesion”. For the same substance, the “inhibition of biofilm formation” value in the assay on Klebsiella pneumoniae [8] is reported as 76-86%. In addition, the “destabilization of pre-formed biofilm” value in the assay with Klebsiella pneumoniae [9] is “significant (P=0.0005) destabilization of the biofilm”.

“α-methyl-D-mannopyranoside [mannose, reference compound]”: the “effect on biofilm formation” value in the assay on E. coli UTI89 [2] is recorded as “prevented formation”. Besides, the “effect on detachment of pre-formed biofilm” value with E. coli UTI89 [3] was “neither mAb475 nor soluble mannose caused substantial detachment”. In the assay on Klebsiella pneumoniae [8], the “inhibition of biofilm formation” value is listed as 38-67%.
